Tests used:
[1] = target: T1, human recombinant HDAC6 (Homo sapiens, UniProt Q9UBN7); assay: HDAC6 enzyme activity inhibition test (HDAC Fluorometric Drug Discovery Kit); type: biochemical; settings: for HDAC6 selectivity (fold): HDAC6 over HDAC1; for IC50: human recombinant HDAC6, same protocol as HDAC1
T1 construct: purchased Calbiochem 382180
T1 sequence (Q9UBN7 1-1215): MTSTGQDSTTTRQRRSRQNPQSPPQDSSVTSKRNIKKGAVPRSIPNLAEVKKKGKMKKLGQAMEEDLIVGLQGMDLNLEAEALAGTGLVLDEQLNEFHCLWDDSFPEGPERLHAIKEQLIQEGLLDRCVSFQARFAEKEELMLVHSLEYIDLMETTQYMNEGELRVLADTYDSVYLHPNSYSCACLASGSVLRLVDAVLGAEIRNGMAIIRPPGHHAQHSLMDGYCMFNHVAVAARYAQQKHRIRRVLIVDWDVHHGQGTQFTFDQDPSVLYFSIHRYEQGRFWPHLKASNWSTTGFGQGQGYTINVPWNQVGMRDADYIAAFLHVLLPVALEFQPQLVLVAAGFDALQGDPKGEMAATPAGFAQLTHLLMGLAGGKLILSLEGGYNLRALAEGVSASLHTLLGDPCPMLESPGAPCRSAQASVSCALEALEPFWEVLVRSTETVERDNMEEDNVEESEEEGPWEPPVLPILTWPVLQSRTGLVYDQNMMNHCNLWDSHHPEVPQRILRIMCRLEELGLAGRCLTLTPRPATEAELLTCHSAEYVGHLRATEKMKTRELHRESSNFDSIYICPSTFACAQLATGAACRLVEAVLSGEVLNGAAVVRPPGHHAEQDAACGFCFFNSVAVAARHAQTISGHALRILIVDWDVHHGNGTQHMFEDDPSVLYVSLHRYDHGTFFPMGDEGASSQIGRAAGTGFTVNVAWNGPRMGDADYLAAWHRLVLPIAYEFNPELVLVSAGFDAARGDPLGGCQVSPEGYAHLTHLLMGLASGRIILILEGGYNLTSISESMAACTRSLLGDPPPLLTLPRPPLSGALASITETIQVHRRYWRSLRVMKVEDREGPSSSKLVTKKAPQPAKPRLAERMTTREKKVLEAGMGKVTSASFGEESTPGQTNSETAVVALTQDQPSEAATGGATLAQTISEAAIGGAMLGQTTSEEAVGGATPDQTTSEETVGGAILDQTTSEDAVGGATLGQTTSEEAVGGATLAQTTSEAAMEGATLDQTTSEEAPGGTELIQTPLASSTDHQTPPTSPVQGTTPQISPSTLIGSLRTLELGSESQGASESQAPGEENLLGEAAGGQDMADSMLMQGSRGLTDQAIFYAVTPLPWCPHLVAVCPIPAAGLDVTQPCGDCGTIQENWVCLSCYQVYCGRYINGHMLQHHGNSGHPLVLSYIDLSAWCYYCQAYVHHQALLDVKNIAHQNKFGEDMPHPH
How it was run: (§1)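 IC50 derived from fluorescence (Ex 360, Em 460) following 30 min development with Developer II. Each reaction held 0.3 μg human recombinant HDAC1 or HDAC6, 10 μM Fluor de Lys SIRT1 substrate and 5-fold serially diluted compound, incubated 60 min at 30 °C.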

[2] = target: T2, human recombinant HDAC1 (Homo sapiens, UniProt Q13547); assay: HDAC1 enzyme activity inhibition test (HDAC Fluorometric Drug Discovery Kit); type: biochemical; settings: 30° C., 60 minutes, 10 μM substrate
T2 construct: purchased Enzo Life Science BML-SE456
How it was run: as §1

T2 sequence (Q13547 whole entry): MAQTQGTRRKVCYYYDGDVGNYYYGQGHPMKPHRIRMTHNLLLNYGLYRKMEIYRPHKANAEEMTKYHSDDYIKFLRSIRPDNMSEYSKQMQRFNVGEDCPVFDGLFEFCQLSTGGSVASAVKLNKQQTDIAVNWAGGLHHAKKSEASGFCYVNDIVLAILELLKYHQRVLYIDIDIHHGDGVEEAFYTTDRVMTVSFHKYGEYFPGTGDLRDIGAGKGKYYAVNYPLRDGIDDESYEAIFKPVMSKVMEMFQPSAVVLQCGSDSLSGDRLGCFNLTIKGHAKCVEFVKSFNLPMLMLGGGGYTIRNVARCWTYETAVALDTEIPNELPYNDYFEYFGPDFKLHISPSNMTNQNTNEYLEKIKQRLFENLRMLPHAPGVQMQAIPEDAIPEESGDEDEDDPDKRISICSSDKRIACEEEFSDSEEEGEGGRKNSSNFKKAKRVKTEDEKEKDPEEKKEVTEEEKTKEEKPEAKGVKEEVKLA

Compound | HDAC6 selectivity (fold) [1] [fold] | IC50 [1] [nM] | IC50 [2] [nM]
Fc1cc(-c2nnc(C(F)F)o2)cnc1Cn1nc(-c2ccc(CN3CC(F)C3)cc2)oc1=S [Compound 110, 3-[[5-[5-(difluoromethyl)-1,3,4-oxadiazol-2-yl]-3-fluoro-2-pyridyl]methyl]-5-[4-[(3-fluoroazetidine-1-yl)methyl]phenyl]-1,3,4-oxadiazol-2-thione] | 919 | 54.4 | > 50000
O=c1sc(-c2ccccn2)nn1Cc1ccc(-c2nnc(C(F)F)o2)cn1 [Compound 49, 3-[[5-[5-(difluoromethyl)-1,3,4-oxadiazol-2-yl]-2-pyridyl]methyl]-5-(2-pyridyl)-1,3,4-thiadiazol-2-one] | 656 | 76.2 | > 50000
O=C1OCC(c2ccc(-c3ccccn3)s2)=NN1Cc1ccc(-c2nnc(C(F)F)o2)cn1 [Compound 74, 3-[[5-[5-(difluoromethyl)-1,3,4-oxadiazol-2-yl]-2-pyridyl]methyl]-5-[5-(2-pyridyl)-2-thienyl]-6H-1,3,4-oxadiazin-2-one] | 828 | 60.4 | > 50000
O=c1oc(-c2ccc(CN3CCCC3)cc2)nn1Cc1ccc(-c2nnc(C(F)F)o2)cn1 [Compound 2, 3-((5-(5-(difluoromethyl)-1,3,4-oxadiazol-2-yl)pyridin-2-yl)methyl)-5-(4-(pyrrolidin-1-ylmethyl)phenyl)-1,3,4-oxadiazol-2(3H)-one] | 506 | 98.8 | > 50000
O=c1sc(-c2cccc(C3CCN(C4COC4)CC3)c2F)nn1Cc1ccc(-c2nnc(C(F)F)o2)cn1 [Compound 58, 3-[[5-[5-(difluoromethyl)-1,3,4-oxadiazol-2-yl]-2-pyridyl]methyl]-5-[2-fluoro-3-[1-(oxetane-3-yl)-4-piperidyl]phenyl]-1,3,4-thiadiazol-2-one] | 643 | 77.8 | > 50000
O=c1oc(-c2ccc3c(c2)CN(C2CCC2)CC3)nn1Cc1ccc(-c2nnc(C(F)F)o2)cn1 [Compound 14, 5-(2-cyclobutyl-3,4-dihydro-1H-isoquinolin-7-yl)-3-[[5-[5-(difluoromethyl)-1,3,4-oxadiazol-2-yl]-2-pyridyl]methyl]-1,3,4-oxadiazol-2-one] | 478 | 105 | > 50000
O=C1OCC(c2cccs2)=NN1Cc1ncc(-c2nnc(C(F)F)o2)cc1F [Compound 70, 3-[[5-[5-(difluoromethyl)-1,3,4-oxadiazol-2-yl]-3-fluoro-2-pyridyl]methyl]-5-(2-thienyl)-6H-1,3,4-oxadiazin-2-one] | 460 | 109 | > 50000
FC(F)c1nnc(-c2ccc(Cn3nc(-c4ccc(CN5CCOCC5)cc4)oc3=S)nc2)o1 [Compound 95, 3-[[5-[5-(difluoromethyl)-1,3,4-oxadiazol-2-yl]-2-pyridyl]methyl]-5-[4-(morpholinomethyl)phenyl]-1,3,4-oxadiazol-2-thione] | 574 | 87.1 | > 50000
O=c1sc(-c2ccc(CN3CCN(C4CS(=O)(=O)C4)CC3)cc2)nn1Cc1ccc(-c2nnc(C(F)F)o2)cn1 [Compound 68] | 473 | 106 | > 50000
CC(C)N1CCC(c2cc(-c3nn(Cc4ccc(-c5nnc(C(F)F)o5)cn4)c(=S)o3)ccc2F)CC1 [Compound 116, 3-[[5-[5-(difluoromethyl)-1,3,4-oxadiazol-2-yl]-2-pyridyl]methyl]-5-[4-fluoro-3-(1-isopropyl-4-piperidyl)phenyl]-1,3,4-oxadiazol-2-thione] | 429 | 116 | > 50000
CCN1CCN(c2cccc(-c3nn(Cc4ccc(-c5nnc(C(F)F)o5)cn4)c(=S)o3)n2)CC1 [Compound 100, 3-[[5-[5-(difluoromethyl)-1,3,4-oxadiazol-2-yl]-2-pyridyl]methyl]-5-[6-(4-ethylpiperazin-1-yl)-2-pyridyl]-1,3,4-oxadiazol-2-thione] | 2049 | 24.4 | > 50000
CC(C)N1CCN(c2cccc(-c3nn(Cc4ccc(-c5nnc(C(F)F)o5)cn4)c(=S)o3)n2)CC1 [Compound 101, 3-[[5-[5-(difluoromethyl)-1,3,4-oxadiazol-2-yl]-2-pyridyl]methyl]-5-[6-(4-isopropylpiperazin-1-yl)-2-pyridyl]-1,3,4-oxadiazol-2-thione] | 2538 | 19.7 | > 50000
CCN1CCN(c2cccc(-c3nn(Cc4ncc(-c5nnc(C(F)F)o5)cc4F)c(=S)o3)n2)CC1 [Compound 103, 3-[[5-[5-(difluoromethyl)-1,3,4-oxadiazol-2-yl]-3-fluoro-2-pyridyl]methyl]-5-[6-(4-ethylpiperazin-1-yl)-2-pyridyl]-1,3,4-oxadiazol-2-thione] | 1302 | 38.4 | > 50000
O=c1oc(-c2ccc3cccnc3c2)nn1Cc1ccc(-c2nnc(C(F)F)o2)cn1 [Compound 17, 3-[[5-[5-(difluoromethyl)-1,3,4-oxadiazol-2-yl]-2-pyridyl]methyl]-5-(7-quinolyl)-1,3,4-oxadiazol-2-one] | 1089 | 45.9 | > 50000
O=c1oc(-c2ccc(CN3CCCCC3)cc2)nn1Cc1ccc(-c2nnc(C(F)F)o2)cn1 [Compound 133, 3-[[5-[5-(difluoromethyl)-1,3,4-oxadiazol-2-yl]-2-pyridyl]methyl]-5-[4-(1-piperidylmethyl)phenyl]-1,3,4-oxadiazol-2-one] | 442 | 113 | > 50000
O=c1oc(-c2ccc3cc[nH]c3c2)nn1Cc1ccc(-c2nnc(C(F)F)o2)cn1 [Compound 33, 3-[[5-[5-(difluoromethyl)-1,3,4-oxadiazol-2-yl]-2-pyridyl]methyl]-5-(1H-indole-6-yl)-1,3,4-oxadiazol-2-one] | 1506 | 33.2 | > 50000
FC(F)c1nnc(-c2ccc(Cn3nc(-c4csc(CN5CCC5)c4)oc3=S)nc2)o1 [Compound 134, 5-[5-(azetidine-1-ylmethyl)-3-thienyl]-3-[[5-[5-(difluoromethyl)-1,3,4-oxadiazol-2-yl]-2-pyridyl]methyl]-1,3,4-oxadiazol-2-thione] | 680 | 73.5 | > 50000
Fc1c(-c2nn(Cc3ccc(-c4nnc(C(F)F)o4)cn3)c(=S)o2)cccc1C1CCN(C2CCCC2)CC1 [Compound 82, 5-[3-(1-cyclopentyl-4-piperidyl)-2-fluoro-phenyl]-3-[[5-[5-(difluoromethyl)-1,3,4-oxadiazol-2-yl]-2-pyridyl]methyl]-1,3,4-oxadiazol-2-thione] | 453 | 110 | > 50000
CN1CCC(c2cccc(-c3nn(Cc4ccc(-c5nnc(C(F)F)o5)cn4)c(=O)o3)c2)CC1 [Compound 8, 3-[[5-[5-(difluoromethyl)-1,3,4-oxadiazol-2-yl]-2-pyridyl]methyl]-5-[3-(1-methyl-4-piperidyl)phenyl]-1,3,4-oxadiazol-2-one] | 546 | 91.6 | > 50000
FC(F)c1nnc(-c2ccc(Cn3nc(-c4ccccc4)oc3=S)nc2)o1 [Compound 45, 3-((5-(5-(difluoromethyl)-1,3,4-oxadiazol-2-yl)pyridin-2-yl)methyl)-5-phenyl-1,3,4-oxadiazol-2(3H)-thione] | 543 | 92 | > 50000
O=c1oc(-c2ccc(CN3CCC3)cc2)nn1Cc1ccc(-c2nnc(C(F)F)o2)cn1 [Compound 132, 5-[4-(azetidin-1-ylmethyl)phenyl]-3-[[5-[5-(difluoromethyl)-1,3,4-oxadiazol-2-yl]-2-pyridyl]methyl]-1,3,4-oxadiazol-2-one] | 484 | 103 | > 50000

From US20260327214A1, “1,3,4-OXADIAZOLE DERIVATIVE COMPOUNDS AS HISTONE DEACETYLASE 6 INHIBITOR, AND USES THEREOF” (CHONG KUN DANG PHARMACEUTICAL CORP., priority 2022, published 2026)
